Results on one compound are retold here after patent publication US11065232B2, “Dihydrotetrabenazine for the treatment of anxiety and psychoses” (ADEPTIO PHARMACEUTICALS LIMITED, priority 2017, dated 2021).

Broadly, the inhibition is how much of the control response was suppressed.

Data set [1] deals with T1, alpha 2A (h) (antagonist radioligand) (Homo sapiens, UniProt P08913).
T1 sequence (P08913 1-465): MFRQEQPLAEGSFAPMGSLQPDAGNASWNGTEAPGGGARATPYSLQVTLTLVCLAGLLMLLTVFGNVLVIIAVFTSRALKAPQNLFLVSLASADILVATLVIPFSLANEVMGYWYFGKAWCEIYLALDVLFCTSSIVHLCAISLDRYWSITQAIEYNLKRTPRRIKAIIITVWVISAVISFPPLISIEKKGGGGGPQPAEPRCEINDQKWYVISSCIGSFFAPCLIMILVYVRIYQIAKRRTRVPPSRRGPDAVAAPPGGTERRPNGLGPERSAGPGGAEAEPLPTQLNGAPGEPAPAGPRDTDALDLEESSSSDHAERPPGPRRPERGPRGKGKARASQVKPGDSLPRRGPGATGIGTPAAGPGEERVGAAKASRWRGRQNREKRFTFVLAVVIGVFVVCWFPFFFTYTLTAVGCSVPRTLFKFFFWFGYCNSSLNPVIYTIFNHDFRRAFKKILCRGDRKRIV
The data set can be described thus: Receptor protein binding studies, alpha 2A. An excerpt:
(§1) The four 3,11b trans-dihydrotetrabenazine isomers (+)-α, (−)-α, (+)-β and (−)-β were subjected to specific binding assays to test their ability to bind to the receptors and transporter proteins described below. The results are set out in Table 1

In data set [2] the target is T2, alpha 2C (h) (antagonist radioligand) (Homo sapiens, UniProt P18825).
T2 sequence (P18825 1-462): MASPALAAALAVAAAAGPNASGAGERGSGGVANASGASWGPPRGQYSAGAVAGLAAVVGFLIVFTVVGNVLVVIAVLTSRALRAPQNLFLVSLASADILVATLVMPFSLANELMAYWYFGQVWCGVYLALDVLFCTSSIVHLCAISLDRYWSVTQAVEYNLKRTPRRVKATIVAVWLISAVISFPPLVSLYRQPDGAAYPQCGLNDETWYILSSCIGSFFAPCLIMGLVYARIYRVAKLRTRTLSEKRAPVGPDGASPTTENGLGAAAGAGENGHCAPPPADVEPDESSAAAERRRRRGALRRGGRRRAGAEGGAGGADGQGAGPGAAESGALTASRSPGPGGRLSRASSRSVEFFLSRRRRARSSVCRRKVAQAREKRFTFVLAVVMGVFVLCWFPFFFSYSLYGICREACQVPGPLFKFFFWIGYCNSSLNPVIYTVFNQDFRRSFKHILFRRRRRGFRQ
The data set can be described thus: Receptor protein binding studies, alpha 2C.
Source text: as §1

Data set [3] addresses T3, D4.4 (h) (antagonist radioligand) (Homo sapiens, UniProt P21917).
T3 sequence (P21917 1-419): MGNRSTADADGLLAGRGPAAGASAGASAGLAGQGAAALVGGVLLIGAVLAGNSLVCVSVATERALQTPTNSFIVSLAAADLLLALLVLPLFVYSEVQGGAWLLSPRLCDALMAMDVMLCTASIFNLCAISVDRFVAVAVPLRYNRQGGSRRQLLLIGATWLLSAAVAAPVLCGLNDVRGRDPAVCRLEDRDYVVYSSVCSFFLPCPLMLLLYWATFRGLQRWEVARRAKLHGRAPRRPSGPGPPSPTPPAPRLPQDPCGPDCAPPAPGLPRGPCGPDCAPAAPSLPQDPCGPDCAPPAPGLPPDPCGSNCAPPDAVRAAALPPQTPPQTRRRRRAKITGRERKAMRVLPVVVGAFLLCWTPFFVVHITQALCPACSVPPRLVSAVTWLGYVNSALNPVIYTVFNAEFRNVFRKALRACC
The data set can be described thus: Receptor protein binding studies, D4.4. Particulars: read-out: % Inhibition of specific binding.
Source text: as §1

In data set [4] the test system is I2 (antagonist radioligand). The data set can be described thus: Receptor protein binding studies, I2.
Source text: as §1

The target of data set [5] is T4, 5-HT1A(h) (agonist radioligand) (Homo sapiens, UniProt P08908).
T4 sequence (P08908 1-422): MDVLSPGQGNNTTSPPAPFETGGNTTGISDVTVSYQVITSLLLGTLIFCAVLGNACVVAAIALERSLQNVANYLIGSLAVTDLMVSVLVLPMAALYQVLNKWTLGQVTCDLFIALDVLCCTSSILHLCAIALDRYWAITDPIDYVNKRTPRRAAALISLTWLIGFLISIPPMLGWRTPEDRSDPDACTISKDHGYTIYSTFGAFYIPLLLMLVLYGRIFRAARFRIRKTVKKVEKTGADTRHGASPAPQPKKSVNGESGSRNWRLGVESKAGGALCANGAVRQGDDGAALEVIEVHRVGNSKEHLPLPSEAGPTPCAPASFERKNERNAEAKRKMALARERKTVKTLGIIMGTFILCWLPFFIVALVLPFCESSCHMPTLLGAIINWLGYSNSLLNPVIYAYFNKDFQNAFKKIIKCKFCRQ
Nature of the data set: Receptor protein binding studies, 5-HT1A.
Source text: as §1

Data set [6] addresses 5-HT2B (h) (agonist radioligand) (Homo sapiens, UniProt P41595). The data set can be described thus: Receptor protein binding studies, 5-HT2B.
Source text: as §1

Data set [7] addresses hERG (membrane preparation) (antagonist radioligand) (Homo sapiens, UniProt Q12809). The data set can be described thus: Receptor protein binding studies, hERG.
Source text: as §1
Background: hERG is a cardiac potassium channel; its block is linked to QT prolongation.

Sequence of hERG (membrane preparation) (antagonist radioligand) (Q12809 whole entry): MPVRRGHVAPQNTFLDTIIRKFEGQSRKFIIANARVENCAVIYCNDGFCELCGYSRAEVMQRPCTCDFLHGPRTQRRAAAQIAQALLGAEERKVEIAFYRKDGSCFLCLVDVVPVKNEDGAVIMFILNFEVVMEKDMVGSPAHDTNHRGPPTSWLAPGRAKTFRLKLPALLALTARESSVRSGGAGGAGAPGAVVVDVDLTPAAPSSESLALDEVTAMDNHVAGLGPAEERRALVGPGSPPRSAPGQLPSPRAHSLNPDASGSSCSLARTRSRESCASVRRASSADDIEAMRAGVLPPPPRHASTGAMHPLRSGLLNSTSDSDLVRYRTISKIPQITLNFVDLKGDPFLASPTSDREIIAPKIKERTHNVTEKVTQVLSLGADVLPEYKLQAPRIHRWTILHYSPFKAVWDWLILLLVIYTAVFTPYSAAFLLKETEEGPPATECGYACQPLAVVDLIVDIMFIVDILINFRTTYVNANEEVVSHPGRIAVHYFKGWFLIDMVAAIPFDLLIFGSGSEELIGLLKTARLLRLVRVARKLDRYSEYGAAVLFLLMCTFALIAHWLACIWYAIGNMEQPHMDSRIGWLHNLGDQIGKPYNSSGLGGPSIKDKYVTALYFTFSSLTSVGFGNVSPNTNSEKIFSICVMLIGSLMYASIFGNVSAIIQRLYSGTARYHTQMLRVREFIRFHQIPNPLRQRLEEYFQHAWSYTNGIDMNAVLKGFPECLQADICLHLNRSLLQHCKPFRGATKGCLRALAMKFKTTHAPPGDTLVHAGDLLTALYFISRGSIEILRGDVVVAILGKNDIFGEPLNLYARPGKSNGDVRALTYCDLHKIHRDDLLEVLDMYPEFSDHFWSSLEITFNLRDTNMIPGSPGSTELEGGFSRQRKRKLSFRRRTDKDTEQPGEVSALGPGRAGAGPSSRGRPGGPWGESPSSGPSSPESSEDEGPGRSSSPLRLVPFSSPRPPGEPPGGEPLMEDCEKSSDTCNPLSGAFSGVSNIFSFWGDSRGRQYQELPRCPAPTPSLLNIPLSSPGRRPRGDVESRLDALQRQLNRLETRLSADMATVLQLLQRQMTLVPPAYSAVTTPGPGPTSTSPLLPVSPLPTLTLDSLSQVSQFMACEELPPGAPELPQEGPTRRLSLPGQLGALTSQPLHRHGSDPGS
Sequence of 5-HT2B (h) (agonist radioligand) (P41595 whole entry): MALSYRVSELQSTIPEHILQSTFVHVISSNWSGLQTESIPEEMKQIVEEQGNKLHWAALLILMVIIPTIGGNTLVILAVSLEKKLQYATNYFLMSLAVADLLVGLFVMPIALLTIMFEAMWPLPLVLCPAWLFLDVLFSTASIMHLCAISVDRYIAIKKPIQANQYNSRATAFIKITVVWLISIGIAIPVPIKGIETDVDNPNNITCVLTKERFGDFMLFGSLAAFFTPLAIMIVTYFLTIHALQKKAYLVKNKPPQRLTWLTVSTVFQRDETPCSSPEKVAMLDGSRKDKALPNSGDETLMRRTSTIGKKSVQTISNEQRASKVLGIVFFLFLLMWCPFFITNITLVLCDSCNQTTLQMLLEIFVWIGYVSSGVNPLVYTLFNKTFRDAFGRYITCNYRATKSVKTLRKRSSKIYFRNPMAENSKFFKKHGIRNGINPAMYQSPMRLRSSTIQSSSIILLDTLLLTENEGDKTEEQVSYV

On to `COc1cc2c(cc1OC)[C@@H]1C[C@@H](O)[C@@H](CC(C)C)CN1CC2` [(−)-Beta, (2S,3R,11bR)-3-isobutyl-9,10-dimethoxy-1,3,4,6,7,11b-hexahydro-2H-pyrido[2,1,a]isoquinolin-2-ol], for which the “activity at the alpha 2A receptor (in words)” value in data set [1] is reported as “potent antagonists”. The “activity at the alpha 2C receptor (in words)” value in data set [2] is “potent antagonists”. The inhibition at 10 µM in data set [3] (CONC 1.0E−05 (unit inferred), 10 μM) turned out to be 99%. For the same compound, the inhibition at 1 µM in data set [3] (CONC 1.0E−06 (unit inferred), 1 μM) is 87%. Besides, the “% Inhibition of specific binding” value in data set [4] (CONC 1.0E−05 (unit not given)) is on record as 37%; in data set [4] (CONC 1.0E−06 (unit not given)), 11%; in data set [7] (CONC 1.0E−05 (unit not given)), 64%; in data set [7] (CONC 1.0E−06 (unit not given)) it was −1%. Also, the “activity at the 5-HT 1A receptor (in words)” value in data set [5] is “potent agonists”. In data set [6], the “activity at the 5-HT 2B receptor (in words)” value is reported as “potent agonists”.
